Assay results: the NIST ThermoML archive (doi:10.1016/j.tca.2014.12.004)

What was measured:
[1] = Molar enthalpy of transition or fusion; settings: Crystal; DSC
[2] = for thermal conductivity: 101.33 kPa

CCCCCCCCCCCC(=O)O [dodecanoic acid]
Settings	Molar enthalpy of transition or fusion [kcal/mol]
[1]	7.56

[2]
Settings	Normal melting temperature [°C]	thermal conductivity [W/m/K]
303.15 K, Crystal	–	0.216
308.15 K, Crystal	–	0.218
313.15 K, Crystal	–	0.208
323.15 K, Liquid	–	0.14
333.15 K, Liquid	–	0.14
Crystal, DTA	42.80	–
